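Cultured in 96-well plates, cells were exposed to test compound for 48 hours across five concentrations. At the GI50, growth is halved. TGI: concentration producing complete growth inhibition.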
Key:
Assay in all cases: growth of human tumour cells (NCI), 48 h
[1] = system: HCC-2998 colon
[2] = system: OVCAR-5 ovarian
[3] = system: MALME-3M melanoma
[4] = system: LOX IMVI melanoma
[5] = system: OVCAR-8 ovarian
[6] = system: HT29 colon
[7] = system: HOP-62 NSCLC
[8] = system: UO-31 renal
[9] = system: COLO 205 colon
[10] = system: CCRF-CEM leukemia
[11] = system: SF-539 CNS
[12] = system: OVCAR-4 ovarian
[13] = system: SK-MEL-28 melanoma
[14] = system: KM12 colon
[15] = system: CAKI-1 renal
[16] = system: MOLT-4 leukemia
[17] = system: SW-620 colon
[18] = system: NCI-H460 lung
[19] = system: K-562 leukemia
[20] = system: PC-3 prostate
[21] = system: EKVX NSCLC
[22] = system: HCT-15 colon
[23] = system: DU-145 prostate
[24] = system: ACHN renal
[25] = system: NCI-H226 lung
[26] = system: SNB-19 CNS
[27] = system: A549 NSCLC

## Cc1nc2cccc(NCc3ccc(C(=O)NO)cc3)c2c(=O)n1-c1ccccc1
[1]
  GI50: 1810 nM
  TGI: 3270 nM
[2]
  GI50: 2130 nM
  TGI: 6750 nM
[3]
  GI50: 1480 nM
  TGI: 3260 nM
[4]
  GI50: 1820 nM
  TGI: 3350 nM
[5]
  GI50: 1520 nM
  TGI: 3750 nM
[6]
  GI50: 2810 nM
  TGI: 11600 nM
[7]
  GI50: 1650 nM
  TGI: 4470 nM
[8]
  GI50: 1370 nM
  TGI: 3150 nM
[9]
  GI50: 1870 nM
  TGI: 3970 nM
[10]
  GI50: 2090 nM
  TGI: > 100000 nM
[11]
  GI50: 1890 nM
  TGI: 4050 nM
[12]
  GI50: 2670 nM
  TGI: 9640 nM
[13]
  GI50: 1970 nM
  TGI: 3920 nM
[14]
  GI50: 1800 nM
  TGI: 3590 nM
[15]
  GI50: 1670 nM
  TGI: 3620 nM
[16]
  GI50: 2280 nM
  TGI: > 100000 nM
[17]
  GI50: 1550 nM
  TGI: 5990 nM
[18]
  GI50: 2210 nM
  TGI: 10500 nM
[19]
  GI50: 2520 nM
  TGI: > 100000 nM
[20]
  GI50: 1900 nM
  TGI: 6140 nM
[21]
  GI50: 2080 nM
  TGI: 4900 nM
[22]
  GI50: 1680 nM
  TGI: 3410 nM
[23]
  GI50: 2700 nM
  TGI: 11900 nM
[24]
  GI50: 1620 nM
  TGI: 3330 nM
[25]
  GI50: 2010 nM
  TGI: 6080 nM
[26]
  GI50: 1920 nM
  TGI: 4560 nM
[27]
  GI50: 2220 nM
